We go through 8 compounds from PubChem BioAssay (NCI).

Common to all, as to assay: growth of human tumour cells (NCI), 48 h
For experiment [1], the system named is SNB-19 CNS.
The subject of experiment [2] is M14 melanoma.
For experiment [3], the system named is COLO 205 colon.
The test system of experiment [4] is A549 NSCLC.
Experiment [5] concerns CAKI-1 renal.
The test system of experiment [6] is PC-3 prostate.
The subject of experiment [7] is RPMI-8226 leukemia.
Experiment [8] deals with RXF 393 renal.
Experiment [9] has as its system SK-OV-3 ovarian.
The test system of experiment [10] is SK-MEL-2 melanoma.

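Method: 48-hour compound exposure of cells in 96-well plates, five concentrations, linear interpolation of endpoints. GI50 = concentration required for 50% inhibition of growth. TGI: concentration producing complete growth inhibition.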

As to `CN(Cc1cccc(Cl)c1)c1ccc(CO)c(Cl)c1`, the GI50 is 27300 nM in [1]; 17500 nM in experiment [2]; 7390 nM in [3]; 5.19 µM in [4]; 2360 nM in [5]; 18 µM in [6]. Further, the GI50 in [7] is 12200 nM; in experiment [8] it was 8550 nM; in experiment [9], 8.16 µM; in [10], 9.88 µM. Further, the TGI in [1] is more than 100 µM; in experiment [2], 49.3 µM; in experiment [3], 20.9 µM; in [4], 23.9 µM; in experiment [5] it was 23.4 µM; in experiment [6] it was more than 54.3 µM. Besides, the TGI in experiment [7] was 55 µM; in experiment [8], 23.4 µM; in experiment [9] it was 28.3 µM; in experiment [10] it was 27.4 µM.
Turning to `Nc1c2c(c(O)c3c1=C(CO)C=N3)=NCCS2=O` (stereo unspecified), the GI50 in experiment [1] is 1590 nM; in experiment [2] it was 1590 nM; in experiment [3], 1710 nM; in experiment [4], 1.72 µM; in experiment [6], 2.19 µM; in experiment [7], 3290 nM. The GI50 in experiment [8] is 3840 nM; in experiment [9] it was 3.11 µM; in experiment [10], 1.45 µM. In addition, the TGI in experiment [1] amounted to 3.07 µM; in [2] it was 3.09 µM; in experiment [3] it was 3.52 µM; in [4], 3.55 µM; in [6], 6.13 µM; in experiment [7], 13.5 µM. For the same compound, the TGI was determined as 17.5 µM in [8], 10.9 µM in experiment [9] and 3.8 µM in experiment [10].
As for `Clc1ccc2c(NCCCNCc3ccc4c(c3)OCO4)ccnc2c1`, the GI50 was 4790 nM in [1]; 1740 nM in experiment [2]; 1730 nM in experiment [3]; 9.47 µM in experiment [4]; 4.08 µM in experiment [6]; 2310 nM in experiment [7]. The GI50 in experiment [8] is 1870 nM; in experiment [9], 14.7 µM; in [10], 2.03 µM. Also, the TGI in [1] was found to be 16.9 µM; in experiment [2] it was 3.42 µM; in [3] it was 3.48 µM; in experiment [4] it was 22.8 µM; in experiment [6], 17.2 µM; in experiment [7], 6.16 µM. For the same compound, the TGI came to 5.07 µM in experiment [8], 29.3 µM in [9] and 4.56 µM in [10].
Take `Nc1c(C(=O)Nc2cccc3ccccc23)sc2nc3c(cc12)CCCCCC3`: the GI50 is 2620 nM in experiment [1]; 1050 nM in experiment [2]; 1450 nM in [3]; 2.54 µM in [4]; 1.79 µM in experiment [6]; 2030 nM in [7]. For the same compound, the GI50 in experiment [8] was 1500 nM; in experiment [9], 1.95 µM; in [10] it was 17 µM. Besides, the TGI in experiment [1] is more than 50 µM; in [2] it was more than 50 µM; in experiment [3] it was 4.8 µM; in [4], more than 50 µM; in experiment [6], more than 50 µM; in [7], more than 50 µM. Further, the TGI in [8], in experiment [9] and in experiment [10] was more than 50 µM each time.
On to `Cc1nc(N(C)C)nc(-c2cccc(-c3ccn(CCN(C)C)n3)c2)c1C`, for which the GI50 in experiment [2] was more than 20000 nM; in experiment [3] it was more than 20000 nM; in experiment [4] it was more than 20 µM; in experiment [5], 19500 nM; in experiment [6], more than 20 µM; in [7] it was more than 20000 nM. In addition, the results for the GI50 in experiment [8], in [9] and in experiment [10] were more than 20000 nM, more than 20 µM and more than 20 µM, respectively. Also, the TGI in [2], in experiment [3], in [4], in experiment [5], in experiment [6] and in [7] was more than 20 µM in each case. For the same compound, the TGI in experiment [8], in [9] and in experiment [10] was more than 20 µM in each case.
For the compound `COc1ccccc1NC(=O)C(=O)C(C#N)CC(C)(C)C=O` (stereo unspecified), the TGI in experiment [2], in [4], in experiment [5], in experiment [6], in experiment [7] and in [8] was more than 100 µM in each case. Moreover, the TGI in experiment [9] and in experiment [10] was more than 100 µM in each case.
For `COc1cc(Nc2nccc(-c3cnn4ncccc34)n2)cc(OC)c1`, the GI50 was 83.6 nM in [1]; 89.1 nM in [2]; 55.3 nM in experiment [3]; 0.119 µM in experiment [4]; 70.3 nM in [5]; 0.0843 µM in experiment [6]. Besides, the results for the GI50 in [7], in [8] and in experiment [9] were 86.2 nM, 45.5 nM and 0.418 µM, respectively. Besides, the TGI in experiment [1] was more than 25 µM; in [2], 0.838 µM; in experiment [3], 0.164 µM; in experiment [4], 5.67 µM; in experiment [5] it was 4.02 µM; in [6], 2.74 µM. In addition, the values for the TGI in [7], in experiment [8] and in experiment [9] were 0.388 µM, 0.131 µM and 9.84 µM, respectively.
For `COc1ccc2c(C(=O)NCCCCCC(=O)O)cc3cc4c(cc3c2c1)OCO4`, the GI50 in experiment [1] was more than 100000 nM; in experiment [2], more than 100000 nM; in experiment [3], more than 100000 nM; in experiment [4] it was more than 100 µM; in experiment [5], more than 100000 nM; in experiment [6], more than 100 µM. Besides, the GI50 in experiment [7] was more than 100000 nM; in experiment [8], more than 100000 nM; in experiment [9], more than 100 µM. Moreover, the TGI in experiment [1], in experiment [2], in experiment [3], in experiment [4], in [5] and in experiment [6] was more than 100 µM each time. Further, the TGI in experiment [7], in [8] and in experiment [9] was more than 100 µM each time.
